The source of these data is article PMC10185535, “Structural insights into cardiolipin replacement by phosphatidylglycerol in a cardiolipin-lacking yeast respiratory supercomplex” (Nature Communications, 2023).

Experiment [1] relates to T1, CRD1∆ SC (III2IV1 trimeric respiratory supercomplex).
T1 construct: gene COB; native trimer (complex III dimer plus one complex IV) from cardiolipin-lacking strain, Cox4 with C-terminal His10, subunit Qcr10 lost; digitonin, His-Trap and SEC; with Cytochrome b-c1 complex subunit 1, mitochondrial; Cytochrome b-c1 complex subunit 2, mitochondrial; Cytochrome b-c1 complex subunit 6, mitochondrial; Cytochrome b-c1 complex subunit 7, mitochondrial; Cytochrome b-c1 complex subunit 9, mitochondrial; Cytochrome c oxidase subunit 2; Cytochrome c oxidase subunit 3; Cytochrome c oxidase subunit 4, mitochondrial; Cytochrome c oxidase subunit 6, mitochondrial; Cytochrome c oxidase subunit 7, mitochondrial; Cytochrome c oxidase subunit 8, mitochondrial; Cytochrome c oxidase subunit 9, mitochondrial; Cytochrome c oxidase subunit 12, mitochondrial; Cytochrome c oxidase subunit 13, mitochondrial; Cytochrome c oxidase subunit 26, mitochondrial
Kind of experiment: cryo-EM structure […] Å. The class given is binding, Saccharomyces cerevisiae. Particulars: Qi sites of complex III only (Cob); endogenous.

In experiment [2] the test system is T2, WT SC (IV1III2IV1; III2IV2 tetrameric respiratory supercomplex).
T2 construct: gene COB; native tetramer (complex III dimer flanked by two complex IV), digitonin extract of mitochondria, FoF1-ATPase removed, sucrose gradient; no tag on the supercomplex; with Cytochrome b-c1 complex subunit 2, mitochondrial; Cytochrome b-c1 complex subunit 6, mitochondrial; Cytochrome b-c1 complex subunit 9, mitochondrial; Cytochrome b-c1 complex subunit 10, mitochondrial; Cytochrome c oxidase subunit 2; Cytochrome c oxidase subunit 3; Cytochrome c oxidase subunit 4, mitochondrial; Cytochrome c oxidase subunit 5A, mitochondrial; Cytochrome c oxidase subunit 6, mitochondrial; Cytochrome c oxidase subunit 7, mitochondrial; Cytochrome c oxidase subunit 8, mitochondrial; Cytochrome c oxidase subunit 9, mitochondrial; Cytochrome c oxidase subunit 12, mitochondrial; Cytochrome c oxidase subunit 13, mitochondrial; Cytochrome c oxidase subunit 26, mitochondrial
Kind of experiment: cryo-EM structure […] Å. The class given is binding, Saccharomyces cerevisiae. As to conditions: Qi and Qo sites of complex III; Cob, Rip1 His181 (Qo); copurified endogenous.

Experiment [3] deals with T1, CRD1∆ SC (III2IV1 trimeric respiratory supercomplex). Kind of experiment: oxygen consumption, Oroboros respirometry. As to conditions: 100 μM DQH2, 50 μM cytochrome c, 0.05% digitonin, pH 7.1, 30 °C. The class given is biochemical, Saccharomyces cerevisiae.
The test system of experiment [4] is T2, WT SC (IV1III2IV1; III2IV2 tetrameric respiratory supercomplex). Kind of experiment: oxygen consumption, Oroboros respirometry. The class given is biochemical, Saccharomyces cerevisiae. As to conditions: 100 μM DQH2, 50 μM cytochrome c, 0.05% digitonin, pH 7.1, 30 °C.
The target of experiment [5] is complex III2 (CIII) of the trimeric supercomplex (III2IV1) from the cardiolipin-lacking CRD1∆ S. cerevisiae mutant (S. cerevisiae (endogenous in strain YEB100)) (UniProt P07256). The experiment is described as follows: cryo-EM structure; trimeric SC (III2IV1) from the CRD1∆ strain, purified by His-Trap (Cox4-His10) and Superose 6 in 0.05% digitonin; Titan Krios, with added 30° tilt data; 3.3 Å.

In experiment [6] the target is complex III2 (CIII, dimer of cytochrome bc1) of the wild type S. cerevisiae respiratory supercomplex (S. cerevisiae (endogenous in strain USY00b)) (UniProt P07256). The experiment is described as follows: cryo-EM structure; WT tetrameric SC (IV1III2IV1) purified by sucrose gradient in digitonin, diluted 1:9 in 15 mM Tris-HCl pH 7.2, 20 mM KCl; Titan Krios 300 kV; 3.2 Å.

The next experiment addresses T3, Cor1, subunit of CIII (S. cerevisiae (endogenous in strain …, UniProt P07256 27-457)).
T3 construct: Cor1, subunit of complex III, S. cerevisiae; source: endogenous, mitochondria of S. cerevisiae strain USY00b; within the purified III2IV2 SC (sucrose gradient)
T3 sequence (looked up): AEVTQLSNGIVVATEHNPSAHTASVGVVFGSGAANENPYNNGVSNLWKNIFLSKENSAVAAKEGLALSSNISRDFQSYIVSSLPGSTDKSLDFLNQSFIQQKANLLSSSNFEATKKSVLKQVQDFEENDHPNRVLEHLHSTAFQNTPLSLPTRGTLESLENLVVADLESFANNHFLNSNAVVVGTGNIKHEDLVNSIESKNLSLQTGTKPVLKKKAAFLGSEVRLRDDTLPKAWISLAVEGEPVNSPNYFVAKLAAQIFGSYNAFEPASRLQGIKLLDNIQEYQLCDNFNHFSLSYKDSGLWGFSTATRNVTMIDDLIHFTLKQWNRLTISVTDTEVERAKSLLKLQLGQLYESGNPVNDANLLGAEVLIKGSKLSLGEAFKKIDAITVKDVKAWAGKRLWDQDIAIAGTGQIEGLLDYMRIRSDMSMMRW
Described as above. As to conditions: both partners purified.

Turning to `COC1=C(OC)C(=O)C(C/C=C(\C)CC/C=C(\C)CC/C=C(\C)CC/C=C(\C)CC/C=C(\C)CCC=C(C)C)=C(C)C1=O` [UQ6], the “cryo-EM structure 3.3 Å” value in experiment [1] is reported as “Densities for UQ6 were found only at Qi sites”. Moreover, in experiment [2], the “cryo-EM structure 3.2 Å” value is listed as “four UQ6 ligands were placed into the map, two in each monomer of CIII”. In the case of `CCCCCCCCCCc1c(C)c(O)c(OC)c(OC)c1O` [reduced decylubiquinone], the “oxygen consumption, Oroboros respirometry” value in experiment [3] was “Due to limited amounts of the ∆CRD1 SC, only one determination was possible”; in experiment [4], “purified WT SC supplemented with Cyt c and reduced decylubiquinone (DQH2) also displayed similar activity”.

Take “complex III2 (CIII) of the trimeric supercomplex (III2IV1) from the cardiolipin-lacking CRD1∆ S. cerevisiae mutant (from UniProt P07256 27-457; P00163 1-385; P07143 62-309; P08067 31-215; P00128 1-127; P08525 1-94; P22289 1-66)”: the stoichiometry N (as a rule, a count of units in the complex or per binding partner) in experiment [5] turned out to be 2.

The molecule “complex III2 (CIII, dimer of cytochrome bc1) of the wild type S. cerevisiae respiratory supercomplex (from UniProt P07256 27-457; P00163 1-385; P07143 62-309; P08067 31-215; P00128 1-127; P08525 1-94; P22289 1-66; P37299 1-77)” came in with a stoichiometry N in experiment [6] of 2.

B1: Cox5a, subunit of CIV (natural protein, UniProt P00424 21-153, looked up)
chain: AQTHALSNAAVMDLQSRWENMPSTEQQDIVSKLSERQKLPWAQLTEPEKQAVWYISYGEWGPRRPVLNKGDSSFIAKGVAAGLLFSVGLFAVVRMAGGQDAKTMNKEWQLKSDEYLKSKNANPWGGYSQVQSK
notes: Cox5a, subunit of complex IV, S. cerevisiae; source: endogenous, mitochondria of S. cerevisiae strain USY00b; within the purified III2IV2 SC (sucrose gradient)
Turning to B1, in the experiment with Cor1, subunit of CIII, the binding result is reported as “binds”.
